Data reported in ChEMBL document CHEMBL6071133, “Discovery of novel penetrating peptides able to target human leukemia and lymphoma for enhanced PROTAC delivery” (Eur J Med Chem, 2024).
Active and inactive are the calls of the source. The rule behind the calls is not given here.

Legend:
[1] = Drug uptake in human KU812 cells assessed as membrane penetration by measuring increase in fluorescence intensity at 5 umol/L incubated for 2 hrs by flow cytometry relative to C9C; assay type: ADME, cell-based; conditions: ku812, 2 h, 5 µM, dose 5 µmol/L
[2] = Drug uptake in human KU812 cells assessed as increase in fluorescence intensity at 1 to 10 umol/L incubated for 2 hrs by cell imaging based fluorescence microscopic analysis; assay type: ADME; conditions: ku812, 2 h, dose 1-10 µmol/L
[3] = Drug uptake in human K562 cells assessed as fluorescence intensity at 5 umol/L pretreated with endocytosis inhibitor, chlorpromazine for 0.5 hrs followed by incubation with compound for 2 hrs by FACS analysis; assay type: ADME, cell-based; conditions: k562, 2 h, 5 µM, dose 5 µmol/L
K562 [4] = assay: Induction of apoptosis in human K562 cells assessed as early apoptotic cells at PROTAC to compound concentration ratio of 1:5 incubated for 48 hrs in presence of 3 umol/L IMA-PROTAC by AnnexinV-FITC/PI staining based flow cytometry (reference value: 0.03%); assay type: functional
[5] = Interaction with IMA-PROTAC assessed as induction of formation of micelle cluster with uniform and distinct spherical morphology by transmission electron microscopy; assay type: physicochemical
[6] = Drug uptake in human K562 cells assessed as increase in fluorescence intensity at 1 to 10 uM incubated for 2 hrs by flow cytometry; assay type: ADME, cell-based; conditions: k562, 2 h, dose 1-10 µM
[7] = Drug uptake in human K562 cells assessed as fluorescence intensity at 5 umol/L pretreated with endocytosis inhibitor, methyl-beta-cyclodextrin for 0.5 hrs followed by incubation with compound for 2 hrs by FACS analysis; assay type: ADME, cell-based; conditions: k562, 2 h, 5 µM, dose 5 µmol/L
[8] = Drug uptake in human KU812 cells assessed as membrane permeability by measuring increase in fluorescence intensity at 5 umol/L incubated for 2 hrs by flow cytometry relative to THP-1 cells; assay type: ADME, cell-based; conditions: ku812, 2 h, 5 µM, dose 5 µmol/L
[9] = Drug uptake in human K562 cells assessed as increase in fluorescence intensity at 1 to 10 umol/L incubated for 2 hrs by cell imaging based fluorescence microscopic analysis; assay type: ADME; conditions: k562, 2 h, dose 1-10 µmol/L
[10] = Drug uptake in human K562 cells assessed as fluorescence intensity at 5 umol/L pretreated with endocytosis inhibitor, chloroquine for 0.5 hrs followed by incubation with compound for 2 hrs by FACS analysis; assay type: ADME, cell-based; conditions: k562, 2 h, 5 µM, dose 5 µmol/L
K562 [11] = assay: Potentiation of IMA-PROTAC-induced cytotoxicity against human K562 cells assessed as inhibition of cell growth at compound: IMA-PROTAC concentration ratio of 5:1 incubated for 48 hrs in presence of 10 to 30 umo/L IMA-PROTAC by MTT assay relative to IMA-PROTAC; assay type: functional
[12] = Interaction with IMA-PROTAC assessed as induction of assembly formation by transmission electron microscopy; assay type: physicochemical
[13] = Increase in membrane permeation of IMA-PROTAC in human K562 cells assessed as increase in intracellular content of IMA-PROTAC incubated for 3 hrs by HPLC-MRM-MS analysis relative to control; assay type: functional
[14] = Stability of the compound in fetal bovine serum assessed as parent compound remaining measured after 36 hrs by HPLC-MS analysis; assay type: ADME, cell-free, Bos taurus; conditions: cattle, read-out: Stability
K562 [15] = assay: Potentiation of IMA-PROTAC-induced cytotoxicity against human K562 cells assessed as inhibition of cell growth at compound: IMA-PROTAC concentration ratio of 5:1 incubated for 48 hrs in presence of 3 umo/L IMA-PROTAC by MTT assay; assay type: functional, cell-based
[16] = Drug uptake in human CCRF-CEM cells assessed as increase in fluorescence intensity at 1 to 10 umol/L incubated for 2 hrs by cell imaging based fluorescence microscopic analysis; assay type: ADME; conditions: dose 1-10 µmol/L
K562 [17] = assay: Increase in membrane permeability of IMA-PROTAC in human K562 cells assessed as potentiation of IMA-PROTAC-induced Bcr-Abl degradation at PROTAC to compound concentration ratio of 1:5 pretreated with proteasome inhibitor, MG132 and carfilzomib followed by incubation with compound for 48 hrs in presence of 3 umol/L IMA-PROTAC by western blot analysis; assay type: functional, cell-based
[18] = Stability of the compound in fetal bovine serum assessed as parent compound remaining measured after 8 hrs by HPLC-MS analysis; assay type: ADME, cell-free, Bos taurus; conditions: cattle, read-out: Stability
[19] = Drug uptake in human CCRF-CEM cells assessed as increase in fluorescence intensity at 5 umol/L measured for 5 to 240 mins by flow cytometry; assay type: ADME, cell-based; conditions: 5 µM, TDE = time-dependent effect, time 5-240 min, dose 5 µmol/L
[20] = Drug uptake in human KU812 cells assessed as increase in fluorescence intensity at 1 to 10 uM incubated for 2 hrs by flow cytometry; assay type: ADME, cell-based; conditions: ku812, 2 h, dose 1-10 µM
K562 [21] = assay: Induction of apoptosis in human K562 cells assessed as viable cells at PROTAC to compound concentration ratio of 1:5 incubated for 48 hrs in presence of 3 umol/L IMA-PROTAC by AnnexinV-FITC/PI staining based flow cytometry (reference value: 99.85%); assay type: functional
K562 [22] = assay: Induction of apoptosis in human K562 cells assessed as necrotic cells at PROTAC to compound concentration ratio of 1:5 incubated for 48 hrs in presence of 3 umol/L IMA-PROTAC by AnnexinV-FITC/PI staining based flow cytometry (reference value: 0.1%); assay type: functional
[23] = Drug uptake in human K562 cells assessed as membrane penetration by measuring increase in fluorescence intensity at 5 umol/L incubated for 2 hrs by flow cytometry relative to C9C; assay type: ADME, cell-based; conditions: k562, 2 h, 5 µM, dose 5 µmol/L
[24] = Drug uptake in human K562 cells assessed as increase in fluorescence intensity at 5 umol/L pretreated with endocytosis inhibitor, nystatin for 0.5 hrs followed by incubation with compound for 2 hrs by FACS analysis; assay type: ADME, cell-based; conditions: k562, 2 h, 5 µM, dose 5 µmol/L
[25] = Drug uptake in human KU812 cells assessed as perinuclear distribution and colocalization with nucleus at 10 umol/L incubated for 2 hrs by confocal laser microscopy; assay type: ADME, cell-based; conditions: ku812, 2 h, 10 µM, dose 10 µmol/L
K562 [26] = assay: Induction of apoptosis in human K562 cells assessed as late apoptotic cells at PROTAC to compound concentration ratio of 1:5 incubated for 48 hrs in presence of 3 umol/L IMA-PROTAC by AnnexinV-FITC/PI staining based flow cytometry (reference value: 0.01%); assay type: functional
[27] = Drug uptake in human K562 cells assessed as increase in fluorescence intensity at 5 umol/L measured for 5 to 240 mins by flow cytometry; assay type: ADME, cell-based; conditions: k562, 5 µM, TDE = time-dependent effect, time 5-240 min, dose 5 µmol/L
[28] = Cytotoxicity against human KU812 cells assessed as cell viability at 0.01 to 100 uM incubated for 48 hrs by MTT assay; assay type: toxicity, cell-based; conditions: dose 0.01-100 µM, read-out: Activity
[29] = Drug uptake in human K562 cells assessed as perinuclear distribution and colocalization with nucleus at 10 umol/L incubated for 2 hrs by confocal laser microscopy; assay type: ADME, cell-based; conditions: k562, 2 h, 10 µM, dose 10 µmol/L
[30] = Drug uptake in human K562 cells assessed as membrane permeability by measuring increase in fluorescence intensity at 5 umol/L incubated for 2 hrs by flow cytometry relative to THP-1 cells; assay type: ADME, cell-based; conditions: k562, 2 h, 5 µM, dose 5 µmol/L
[31] = Stability of the compound in fetal bovine serum assessed as parent compound remaining measured after 12 hrs by HPLC-MS analysis; assay type: ADME, cell-free, Bos taurus; conditions: cattle, read-out: Stability

## CC(C)C[C@H](NC(=O)[C@H](Cc1csc2ccccc12)NC(=O)[C@@H](Cc1ccccc1)NC(=O)[C@H](Cc1ccccc1)NC(=O)CNC(=O)[C@@H](N)CS)C(=O)N[C@@H](CCCNC(=N)N)C(=O)N[C@@H](CO)C(=O)N[C@@H](CS)C(=O)O
[1]
  fold change (FC): 4.45
[2]
  Drug uptake: Active
[3]
  Drug uptake: Not Active
K562 [4]
  Activity: 22.82%
[5]
  Activity: Not Active
[6]
  Drug uptake: Dose-Dependent Effect
[7]
  Drug uptake: Not Active
[8]
  fold change (FC): 4
[9]
  Drug uptake: Active
[10]
  Drug uptake: Not Active
K562 [11]
  inhibition (INH): 20%
[12]
  Activity: Not Active
[13]
  fold change (FC): 1.72
[14]
  remaining at 36 h: 55%
K562 [15]
  Activity: inactive
[16]
  Drug uptake: Active
K562 [17]
  Activity: inactive
[18]
  remaining at 8 h: 100%
[19]
  Drug uptake: Tde
[20]
  Drug uptake: Dose-Dependent Effect
K562 [21]
  Activity: 63.19%
K562 [22]
  Activity: 0%
[23]
  fold change (FC): 4.03
[24]
  Drug uptake: Active
[25]
  Drug uptake: Active
K562 [26]
  Activity: 13.98%
[27]
  Drug uptake: Tde
[28]
  viability at 48 h, up to 100 µM: > 75%
[29]
  Drug uptake: Active
[30]
  fold change (FC): 8.8
[31]
  remaining at 12 h: 80%
